# Source: patent publication US8822530B2, “Sulfur derivatives as chemokine receptor modulators” (Allergan, Inc., priority 2010, dated 2014)
# Target: T1, CCR2 receptor (Homo sapiens, UniProt P41597)
# T1 construct: expressed in transfected cells
# Test: Calcium activity assay on FLIPR Tetra in HEK-Gqi5 cells stably expressing CCR2
# Assay type: cell-based
# Protocol: HEK-Gqi5 cells stably expressing CCR2 were cultured in DMEM high glucose, 10% FBS, 1% PSA, 400 μg/ml geneticin and 50 μg/ml hygromycin. Appropriate positive control chemokines (MCP-1, MIP1A or RANTES) was used as the positive control agonist for screening compound-induced calcium activity assayed on the FLIPR^Tetra. The drug plates were prepared in 384-well microplates using the EP3 and the MultiPROBE robotic liquid handling systems. Compounds were synthesized and tested for CCR2 activity.
# T1 sequence (P41597 whole entry): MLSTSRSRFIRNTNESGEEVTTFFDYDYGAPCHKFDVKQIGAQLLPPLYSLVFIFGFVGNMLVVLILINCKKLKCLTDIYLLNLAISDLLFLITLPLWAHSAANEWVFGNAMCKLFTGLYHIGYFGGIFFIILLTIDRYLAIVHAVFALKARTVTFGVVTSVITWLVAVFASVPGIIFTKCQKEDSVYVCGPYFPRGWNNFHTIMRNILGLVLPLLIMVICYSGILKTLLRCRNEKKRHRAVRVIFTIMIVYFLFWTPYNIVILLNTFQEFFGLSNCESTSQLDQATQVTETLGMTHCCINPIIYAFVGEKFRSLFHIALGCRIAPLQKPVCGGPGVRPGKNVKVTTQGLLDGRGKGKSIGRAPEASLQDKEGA
Structure (SMILES),CCR2 % ANTAGONISM [%],IC50 [nM]
CC(C)(C)OC(=O)CNC(=O)c1ccc(CS(=O)(=O)c2ccc(Cl)cc2NS(=O)(=O)c2ccc(Cl)c(C(F)(F)F)c2)cc1 [tert-butyl ({[4-({[4-chloro-2-({[4-chloro-3-(trifluoromethyl)phenyl]sulfonyl}amino)phenyl]sulfonyl}methyl)phenyl]carbonyl}amino)acetate],77,2660
O=C(O)c1cccc(CS(=O)(=O)c2ccc(Cl)cc2NS(=O)(=O)c2ccc(Cl)c(C(F)(F)F)c2)c1 [3-({[4-chloro-2-({[4-chloro-3-(trifluoromethyl)phenyl]sulfonyl}amino)phenyl]sulfonyl}methyl)benzoic acid],101,1580
"O=C1CCc2cc(NS(=O)(=O)c3cc4ccccc4o3)c([S+]([O-])Cc3ccccc3)cc21 (stereo not shown) [N-[6-(benzylsulfinyl)-1-oxo-2,3-dihydro-1H-inden-5-yl]-1-benzofuran-2-sulfonamide]",73,–
O=C(O)CCSc1ccc(Cl)cc1NS(=O)(=O)c1ccc(Cl)cc1F [3-[(4-chloro-2-{[(4-chloro-2-fluorophenyl)sulfonyl]amino}phenyl)sulfanyl]propanoic acid],102,129
O=S(=O)(Cc1ccccc1)c1ccc(Cl)cc1NS(=O)(=O)c1ccc(Cl)c(C(F)(F)F)c1 [N-[2-(benzylsulfonyl)-5-chlorophenyl]-4-chloro-3-(trifluoromethyl)benzenesulfonamide],71,538
COC(=O)c1cccc(CS(=O)(=O)c2ccc(Cl)cc2NS(=O)(=O)c2ccc(Cl)c(C(F)(F)F)c2)c1 [methyl 3-({[4-chloro-2-({[4-chloro-3-(trifluoromethyl)phenyl]sulfonyl}amino)phenyl]sulfonyl}methyl)benzoate],55,2970
O=C(O)c1ccc(CSc2ccc(Cl)cc2NS(=O)(=O)c2ccc(Cl)c(C(F)(F)F)c2)cc1 [4-({[4-chloro-2-({[4-chloro-3-(trifluoromethyl)phenyl]sulfonyl}amino)phenyl]sulfanyl}methyl)benzoic acid],102,255
CS(=O)(=O)Nc1cccc(CSc2ccc(Cl)cc2NS(=O)(=O)c2cc3ccccc3o2)c1 [N-[5-chloro-2-({3-[(methylsulfonyl)amino]benzyl}sulfanyl)phenyl]-1-benzofuran-2-sulfonamide],90,1280
COC(=O)CC[S+]([O-])c1ccc(Cl)cc1NS(=O)(=O)c1cc2ccccc2o1 (stereo not shown) [methyl 3-({2-[(1-benzofuran-2-ylsulfonyl)amino]-4-chlorophenyl}sulfinyl)propanoate],99,217
O=C(O)c1ccccc1C[S+]([O-])c1ccc(Cl)cc1NS(=O)(=O)c1ccc(Cl)c(C(F)(F)F)c1 (stereo not shown) [2-({[4-chloro-2-({[4-chloro-3-(trifluoromethyl)phenyl]sulfonyl}amino)phenyl]sulfinyl}methyl)benzoic acid],99,853
COC(=O)c1ccccc1CSc1ccc(F)cc1NS(=O)(=O)c1cc2ccccc2o1 [methyl 2-[({2-[(1-benzofuran-2-ylsulfonyl)amino]-4-fluorophenyl}sulfanyl)methyl]benzoate],93,272
O=C(O)CNC(=O)c1ccc(CSc2ccc(Cl)cc2NS(=O)(=O)c2ccc(Cl)c(C(F)(F)F)c2)cc1 [({[4-({[4-chloro-2-({[4-chloro-3-(trifluoromethyl)phenyl]sulfonyl}amino)phenyl]sulfanyl}methyl)phenyl]carbonyl}amino)acetic acid],75,–
O=C(NCCN1CCCC1)c1cccc(C[S+]([O-])c2ccc(Cl)cc2NS(=O)(=O)c2ccc(Cl)c(C(F)(F)F)c2)c1 (stereo not shown) [3-({[4-chloro-2-({[4-chloro-3-(trifluoromethyl)phenyl]sulfonyl}amino)phenyl]sulfinyl}methyl)-N-[2-(pyrrolidin-1-yl)ethyl]benzamide],105,910
"CCN(CC)C(=O)CC[S+]([O-])c1ccc(Cl)cc1NS(=O)(=O)c1ccc(Cl)c(C(F)(F)F)c1 (stereo not shown) [3-{[4-chloro-2-({[4-chloro-3-(trifluoromethyl)phenyl]sulfonyl}amino)phenyl]sulfinyl}-N,N-diethylpropanamide]",56,1690
CC(=O)Nc1cccc(CS(=O)(=O)c2ccc(Cl)cc2NS(=O)(=O)c2cc3ccccc3o2)c1 [N-{3-[({2-[(1-benzofuran-2-ylsulfonyl)amino]-4-chlorophenyl}sulfonyl)methyl]phenyl}acetamide],100,854
O=S(=O)(Nc1cc(Cl)ccc1SCc1ccccc1)c1ccc(Cl)c(C(F)(F)F)c1 [N-[2-(benzylsulfanyl)-5-chlorophenyl]-4-chloro-3-(trifluoromethyl)benzenesulfonamide],68,1280
O=C(O)c1ccc(C[S+]([O-])c2ccc(Cl)cc2NS(=O)(=O)c2ccc(Cl)c(C(F)(F)F)c2)cc1 (stereo not shown) [4-({[4-chloro-2-({[4-chloro-3-(trifluoromethyl)phenyl]sulfonyl}amino)phenyl]sulfinyl}methyl)benzoic acid],23,2100

Structure (SMILES),CCR2 % ANTAGONISM [%],IC50 [nM]
O=C(O)CCS(=O)(=O)c1ccc(Cl)cc1NS(=O)(=O)c1ccc(Cl)cc1F [3-[(4-chloro-2-{[(4-chloro-2-fluorophenyl)sulfonyl]amino}phenyl)sulfonyl]propanoic acid],90,–
CCN(C)C(=O)CC[S+]([O-])c1ccc(Cl)cc1NS(=O)(=O)c1ccc(Cl)cc1F (stereo not shown) [3-[(4-chloro-2-{[(4-chloro-2-fluorophenyl)sulfonyl]amino}phenyl)sulfinyl]-N-ethyl-N-methylpropanamide],89,7520
O=C(CCS(=O)(=O)c1ccc(Cl)cc1NS(=O)(=O)c1ccc(Cl)c(C(F)(F)F)c1)N1CCCC1 [4-chloro-N-(5-chloro-2-{[3-oxo-3-(pyrrolidin-1-yl)propyl]sulfonyl}phenyl)-3-(trifluoromethyl)benzenesulfonamide],58,–
N#Cc1ccc(NS(=O)(=O)c2cc3ccccc3o2)c([S+]([O-])Cc2ccccc2)c1 (stereo not shown) [N-[2-(benzylsulfinyl)-4-cyanophenyl]-1-benzofuran-2-sulfonamide],94,1030
O=C(O)c1ccccc1CSc1ccc(F)cc1NS(=O)(=O)c1cc2ccccc2o1 [2-[({2-[(1-benzofuran-2-ylsulfonyl)amino]-4-fluorophenyl}sulfanyl)methyl]benzoic acid],99,11
COC(=O)CC[S+]([O-])c1ccc(Cl)cc1NS(=O)(=O)c1ccc(Cl)cc1F (stereo not shown) [methyl 3-[(4-chloro-2-{[(4-chloro-2-fluorophenyl)sulfonyl]amino}phenyl)sulfinyl]propanoate],93,98
CC(=O)Nc1cccc(CSc2ccc(Cl)cc2NS(=O)(=O)c2cc3ccccc3o2)c1 [N-{3-[({2-[(1-benzofuran-2-ylsulfonyl)amino]-4-chlorophenyl}sulfanyl)methyl]phenyl}acetamide],96,379
O=C(NCCN1CCCC1)c1ccc(CSc2ccc(Cl)cc2NS(=O)(=O)c2ccc(Cl)c(C(F)(F)F)c2)cc1 [4-({[4-chloro-2-({[4-chloro-3-(trifluoromethyl)phenyl]sulfonyl}amino)phenyl]sulfanyl}methyl)-N-[2-(pyrrolidin-1-yl)ethyl]benzamide],75,2320
N#Cc1ccc(NS(=O)(=O)c2cc3ccccc3o2)c(S(=O)(=O)Cc2ccccc2)c1 [N-[2-(benzylsulfonyl)-4-cyanophenyl]-1-benzofuran-2-sulfonamide],96,888
O=C(O)CC[S+]([O-])c1ccc(Cl)cc1NS(=O)(=O)c1ccc(Cl)cc1F (stereo not shown) [3-[(4-chloro-2-{[(4-chloro-2-fluorophenyl)sulfonyl]amino}phenyl)sulfinyl]propanoic acid],83,–
O=C(O)c1ccccc1C[S+]([O-])c1ccc(Cl)cc1NS(=O)(=O)c1cc2ccccc2o1 (stereo not shown) [2-[({2-[(1-benzofuran-2-ylsulfonyl)amino]-4-chlorophenyl}sulfinyl)methyl]benzoic acid],98,806
COC(=O)c1cccc(CSc2ccc(Cl)cc2NS(=O)(=O)c2ccc(Cl)c(C(F)(F)F)c2)c1 [methyl 3-({[4-chloro-2-({[4-chloro-3-(trifluoromethyl)phenyl]sulfonyl}amino)phenyl]sulfanyl}methyl)benzoate],57,1360
CC(C)(C)OC(=O)CNC(=O)c1ccc(C[S+]([O-])c2ccc(Cl)cc2NS(=O)(=O)c2ccc(Cl)c(C(F)(F)F)c2)cc1 (stereo not shown) [tert-butyl ({[4-({[4-chloro-2-({[4-chloro-3-(trifluoromethyl)phenyl]sulfonyl}amino)phenyl]sulfinyl}methyl)phenyl]carbonyl}amino)acetate],93,–
O=C(O)c1cccc(C[S+]([O-])c2ccc(Cl)cc2NS(=O)(=O)c2ccc(Cl)c(C(F)(F)F)c2)c1 (stereo not shown) [3-({[4-chloro-2-({[4-chloro-3-(trifluoromethyl)phenyl]sulfonyl}amino)phenyl]sulfinyl}methyl)benzoic acid],89,–
O=C(NCCN1CCCC1)c1cccc(CSc2ccc(Cl)cc2NS(=O)(=O)c2ccc(Cl)c(C(F)(F)F)c2)c1 [3-({[4-chloro-2-({[4-chloro-3-(trifluoromethyl)phenyl]sulfonyl}amino)phenyl]sulfanyl}methyl)-N-[2-(pyrrolidin-1-yl)ethyl]benzamide],97,2170
O=C(O)c1ccccc1CS(=O)(=O)c1ccc(Cl)cc1NS(=O)(=O)c1ccc(Cl)c(C(F)(F)F)c1 [2-({[4-chloro-2-({[4-chloro-3-(trifluoromethyl)phenyl]sulfonyl}amino)phenyl]sulfonyl}methyl)benzoic acid],105,–
